# Reference: patent US9457039B2, “2′-disubstituted nucleoside derivatives and methods of use thereof for the treatment of viral diseases” (Merck Sharp & Dohme Corp., priority 2012, dated 2016)
# System: HCV replicon (1b) cells
# Test: Cell-based HCV replicon assay (replicon RNA level by real time PCR, Taqman)
# Settings: HCV replicon cells, harvested on day 3; EC50 = concentration giving ΔCT=1 over baseline; read-out: 1b EC50
# Protocol: To measure cell-based anti-HCV activity of selected compounds of the present invention, replicon cells were seeded at 5000 cells/well in 96-well collagen I-coated Nunc plates in the presence of the test compound. Various concentrations of test compound, typically in 10 serial 2-fold dilutions, were added to the assay mixture, with the starting concentration ranging from 250 μM to 1 μM. The final concentration of dimethylsulfoxide was 0.5% fetal bovine serum was 5%, in the assay media. Cells were harvested on day 3 by the addition of 1× cell lysis buffer (Ambion cat #8721).
# The replicon RNA level was measured using real time PCR (Taqman assay). The amplicon was located in 5B. The PCR primers were: 5B.2F, […] (SEQ ID. NO. 1); 5B.2R, […] (SEQ ID. NO. 2); the probe sequence was FAM-labeled […] (SEQ ID. NO. 3). GAPDH RNA was used as endogenous control and was amplified in the same reaction as NS5B (multiplex PCR) using primers and VIC-labeled probe recommended by the manufacturer (PE Applied Biosystem). The real-time RT-PCR reactions were run on ABI PRISM 7900HT Sequence Detection System using the following program: 48° C. for 30 minutes, 95° C. for 10 minutes, 40 cycles of 95° C. for 15 sec, 60° C. for 1 minute. The ΔCT values (CT5B-CTGAPDH) were plotted against the concentration of test compound and fitted to the sigmoid dose-response model using XLfit4 (MDL). […] Alternatively, to quantitate the absolute amount of replicon RNA, a standard curve was established by including serially diluted T7 transcripts of replicon RNA in the Taqman assay. All Taqman reagents were from […] Applied Biosystems. Such an assay procedure was described in detail in e.g. Malcolm et al., Antimicrobial Agents and Chemotherapy 50: 1013-1020 (2006).
row,SMILES,EC50
1,CC(C)OP1(=O)OC[C@H]2O[C@@H](c3cnn4c(N)ncnc34)[C@](C)(N)[C@@H]2O1 (stereo partly shown) [Compound 21],> 100 µM
2,CC(C)OP1(=O)OC[C@H]2O[C@@H](c3cnc4c(N)ncnn34)[C@](C)(N)[C@@H]2O1 (stereo partly shown) [Compound 19],> 100 µM

# Same assay, conditions: Hepatitis C virus, 72 h; read-out: 1b EC50
row,SMILES,EC50
1,CC(C)OP1(=O)OC[C@H]2O[C@@H](c3cnn4c(N)ncnc34)[C@](C)(N)[C@@H]2O1 (stereo partly shown) [Compound 20],> 100 µM
2,C[C@@]1(N=[N+]=[N-])[C@H](O)[C@@H](CO)O[C@H]1c1cnn2c(N)ncnc12 [Compound 4],> 100 µM
3,CC(C)OP1(=O)OC[C@H]2O[C@@H](c3cnc4c(N)ncnn34)[C@](C)(N)[C@@H]2O1 (stereo partly shown) [Compound 18],> 100 µM
4,C[C@@]1(N)[C@H](O)[C@@H](CO)O[C@H]1c1cnc2c(N)ncnn12 [Compound 6],> 100 µM
5,C[C@@]1(N=[N+]=[N-])[C@H](O)[C@@H](CO)O[C@H]1c1cnc2c(N)ncnn12 [Compound 3],> 100 µM
6,C[C@@]1(N)[C@H](O)[C@@H](CO)O[C@H]1c1cnn2c(N)ncnc12 [Compound 7],> 100 µM

# Same assay, conditions: read-out: 1b EC50; HCV replicon cells, harvested on day 3; EC50 = concentration giving ΔCT=1 over baseline
row,SMILES,EC50
1,CC(C)OC(=O)[C@H](C)NP(=O)(OC[C@H]1O[C@@H](c2cnn3c(N)ncnc23)[C@](C)(N)[C@@H]1O)Oc1ccccc1 (stereo partly shown) [Compound 15],28 µM
2,CC(C)OC(=O)[C@H](C)NP(=O)(OC[C@H]1O[C@@H](c2cnn3c(N)ncnc23)[C@](C)(N)[C@@H]1O)Oc1ccccc1 (stereo partly shown) [Compound 14],> 100 µM
